# From publication PMC9666459, “Crystal structure of semi-synthetic obelin-v after calcium induced bioluminescence implies coelenteramine as the main reaction product” (Scientific Reports, 2022)
# How the values were obtained:
# [1] = biological target: T1, obelin (apo-obelin; obelin-v when charged with CTZ-v) (Obelia longissima, UniProt Q27709); test: charging of apo-obelin, Ca2+ discharge, then fluorescence and structure of discharged protein; format: biochemical; settings: O2, Ca2+; charging overnight with twofold molar excess in 5 mM EDTA, 10 mM DTT, 20 mM Tris-HCl pH 7.2, 4 °C
# T1 construct: Ca2+-discharged form; two molecules per asymmetric unit
# T1 sequence (Q27709 1-195): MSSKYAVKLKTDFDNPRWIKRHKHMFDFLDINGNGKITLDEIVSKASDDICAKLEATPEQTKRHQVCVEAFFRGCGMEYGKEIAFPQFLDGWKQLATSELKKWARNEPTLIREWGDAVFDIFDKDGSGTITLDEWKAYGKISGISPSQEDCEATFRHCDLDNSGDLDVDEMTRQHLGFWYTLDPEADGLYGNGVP
# [2] = biological target: T1, obelin (apo-obelin; obelin-v when charged with CTZ-v); test: charging of apo-obelin, Ca2+ discharge, then fluorescence of discharged protein; format: biochemical; settings: O2, Ca2+; charging overnight with twofold molar excess in 5 mM EDTA, 10 mM DTT, 20 mM Tris-HCl pH 7.2, 4 °C
Structure (SMILES),"charging of apo-obelin, Ca2+ discharge, then fluorescence and structure of disch [1]","charging of apo-obelin, Ca2+ discharge, then fluorescence of discharged protein [2]"
O=c1c(Cc2ccc(O)cc2)nc2c(Cc3ccccc3)[nH]c3c4ccc(O)cc4ccc3n1-2 [CTZ-v],apo-obelin was incubated overnight with a twofold molar excess of CTZ or CTZ-v,–
Oc1ccc(Cc2nc3c(Cc4ccccc4)nc(-c4ccc(O)cc4)cn3c2O)cc1 [CTZ],–,apo-obelin was incubated overnight with a twofold molar excess of CTZ or CTZ-v
